Measured values published in ChEMBL document CHEMBL1151449, “In vitro activity of DC-159a, a new broad-spectrum fluoroquinolone, compared with that of other agents against drug-susceptible and -resistant pneumococci” (2008).
Values after ≈ are worked out from the molar mass of the structure shown.

Assays:
Type in all cases: functional
Streptococcus pneumoniae [1] = experiment: Antibacterial activity against penicillin-, quinolone-resistant Streptococcus pneumoniae HMC 1541 harboring mutation in L4 protein by broth microdilution method
Streptococcus pneumoniae [2] = experiment: Antibacterial activity against Streptococcus pneumoniae HMC 4026 harboring S81Y mutation in quinolone-resistant determining regions of GyrA gene, S79F, K137N mutation in QRDR of ParC gene and I460V mutation in QRDR of ParE gene by agar dilution method
Streptococcus pneumoniae [3] = experiment: (§1) Antibacterial activity against penicillin-, macrolide-susceptible and quinolone-resistant Streptococcus pneumoniae HMC 1074 harboring S81F mutation in quinolone-resistant determining regions of GyrA gene, S79F mutation in QRDR of ParC gene and I460V mutation in QRDR of ParE gene after 50 passages by broth microdilution method
Streptococcus pneumoniae [4] = experiment: (§2) Antibacterial activity against penicillin-resistant and quinolone-susceptible Streptococcus pneumoniae HMC 3583 expressing mefA and harboring I460V mutation in QRDR of ParE gene after 41 passages with gemifloxacin measured after 10 daily antibiotic-free subculturing by multi-step resistance selection technique
Streptococcus pneumoniae [5] = experiment: Antibacterial activity against Streptococcus pneumoniae HMC 1149 harboring S81F and S79Y mutation in quinolone-resistant determining regions of GyrA and ParC genes respectively showing efflux to ciprofloxacin, gemifloxacin by agar dilution method
Streptococcus pneumoniae [6] = experiment: Antibacterial activity against Streptococcus pneumoniae HMC 1055 harboring S81F mutation in quinolone-resistant determining regions of GyrA gene, S79F, K137N mutation in QRDR of ParC gene and I460V mutation in QRDR of ParE gene by agar dilution method
Streptococcus pneumoniae [7] = experiment: Antibacterial activity against penicillin-resistant and quinolone-susceptible Streptococcus pneumoniae HMC 3583 expressing mefA by broth microdilution method
Streptococcus pneumoniae [8] = experiment: Antibacterial activity against Streptococcus pneumoniae HMC 1076 harboring S81F mutation in quinolone-resistant determining regions of GyrA gene, D83N mutation in QRDR of ParC gene and I460V mutation in QRDR of ParE gene by agar dilution method
Streptococcus pneumoniae [9] = experiment: Antibacterial activity against Streptococcus pneumoniae HMC 2536 harboring S81Y mutation in quinolone-resistant determining regions of GyrA gene, S79F, K137N mutation in QRDR of ParC gene and I460V mutation in QRDR of ParE gene by agar dilution method
Streptococcus pneumoniae [10] = experiment: Antibacterial activity against penicillin-, macrolide- and quinolone-susceptible Streptococcus pneumoniae HMC 63 after 50 passages by broth microdilution method
Streptococcus pneumoniae [11] = experiment: as §2, with “harboring S81F mutation in quinolone-resistant determining regions of GyrA gene, D83N mutation in QRDR of ParC gene and” for “harboring”, “44” for “41”, “levofloxacin” for “gemifloxacin”
Streptococcus pneumoniae [12] = experiment: as §2, with “228” for “3583”, “ermB” for “mefA”, “harboring S81F mutation in quinolone-resistant determining regions of GyrA gene, D83N mutation in QRDR of ParC gene and” for “harboring”, “28” for “41”, “DC-159a” for “gemifloxacin”
Streptococcus pneumoniae [13] = experiment: Antibacterial activity against Streptococcus pneumoniae HMC 1077 harboring S81Y and S79F mutation in quinolone-resistant determining regions of GyrA and ParC genes respectively by agar dilution method
Streptococcus pneumoniae [14] = experiment: Antibacterial activity against Streptococcus pneumoniae HMC 1071 harboring S81F mutation in quinolone-resistant determining regions of GyrA gene and S79F, K137N mutation in QRDR of ParC gene by agar dilution method
Streptococcus pneumoniae [15] = experiment: Antibacterial activity against Streptococcus pneumoniae HMC 1073 harboring S81F mutation in quinolone-resistant determining regions of GyrA gene, and I460V mutation in QRDR of ParE gene by agar dilution method
Streptococcus pneumoniae [16] = experiment: Antibacterial activity against macrolide-, quinolone-susceptible and penicillin-intermediate Streptococcus pneumoniae HMC 100 by broth microdilution method
Streptococcus pneumoniae [17] = experiment: Antibacterial activity against Streptococcus pneumoniae HMC 1156 harboring S81F and S79F mutation in quinolone-resistant determining regions of GyrA and ParC genes respectively showing efflux to ciprofloxacin, gemifloxacin by agar dilution method
Streptococcus pneumoniae [18] = experiment: Antibacterial activity against quinolone-resistant Streptococcus pneumoniae […] by agar dilution method
Streptococcus pneumoniae [19] = experiment: Antibacterial activity against Streptococcus pneumoniae HMC 1146 harboring S81F mutation in quinolone-resistant determining regions of GyrA gene, and D435N mutation in QRDR of ParE gene by agar dilution method
Streptococcus pneumoniae [20] = experiment: as §2, with “228” for “3583”, “ermB” for “mefA”, “harboring S81F mutation in quinolone-resistant determining regions of GyrA gene, S79Y mutation in QRDR of ParC gene and” for “harboring”, “36” for “41”, “moxifloxacin” for “gemifloxacin”
Streptococcus pneumoniae [21] = experiment: Antibacterial activity against Streptococcus pneumoniae HMC 1070 harboring S81F mutation in quinolone-resistant determining regions of GyrA gene, D83N mutation in QRDR of ParC gene and I460V mutation in QRDR of ParE gene by agar dilution method
Streptococcus pneumoniae [22] = experiment: Antibacterial activity against Streptococcus pneumoniae HMC 1541 harboring S81Y mutation in quinolone-resistant determining regions of GyrA gene, S79F, K137N mutation in QRDR of ParC gene and I460V mutation in QRDR of ParE gene by agar dilution method
Streptococcus pneumoniae [23] = experiment: Antibacterial activity against quinolone-susceptible and penicillin-intermediate Streptococcus pneumoniae HMC 5048 expressing mefA by broth microdilution method
Streptococcus pneumoniae [24] = experiment: as §2, with “228” for “3583”, “ermB” for “mefA”, “harboring S81F mutation in quinolone-resistant determining regions of GyrA gene, S79Y mutation in QRDR of ParC gene and” for “harboring”, “38” for “41”, “gatifloxacin” for “gemifloxacin”
Streptococcus pneumoniae [25] = experiment: as §1, with “penicillin-susceptible,” for “penicillin-, macrolide-susceptible and”, “1072 expressing ermB and” for “1074”, “S79Y” for “S79F”
Streptococcus pneumoniae [26] = experiment: Antibacterial activity against Streptococcus pneumoniae HMC 1078 harboring S81F mutation in quinolone-resistant determining regions of GyrA gene, S79F mutation in QRDR of ParC gene and I460V mutation in QRDR of ParE gene by agar dilution method
Streptococcus pneumoniae [27] = experiment: as §2, with “S81F mutation in quinolone-resistant determining regions of GyrA gene and I460V, D435N” for “I460V”, “46” for “41”, “gatifloxacin” for “gemifloxacin”
Streptococcus pneumoniae [28] = experiment: Antibacterial activity against Streptococcus pneumoniae HMC 1058 harboring S79F, K137N mutation in quinolone-resistant determining regions of ParC gene and 460V mutation in QRDR of ParE gene by agar dilution method
Streptococcus pneumoniae [29] = experiment: Antibacterial activity against Streptococcus pneumoniae HMC 1139 harboring S81F mutation in quinolone-resistant determining regions of GyrA gene, S79F, K137N mutation in QRDR of ParC gene and I460V mutation in QRDR of ParE gene by agar dilution method
Streptococcus pneumoniae [30] = experiment: Antibacterial activity against penicillin-intermediate Streptococcus pneumoniae […] by agar dilution method
Streptococcus pneumoniae [31] = experiment: Antibacterial activity against macrolide-, quinolone-susceptible and penicillin-intermediate Streptococcus pneumoniae HMC 100 harboring S81Y and S79Y mutation in quinolone-resistant determining regions of GyrA and ParC genes respectively after 42 passages with levofloxacin measured after 10 daily antibiotic-free subculturing by multi-step resistance selection technique

COc1c(N2CCNC(C)C2)c(F)cc2c(=O)c(C(=O)O)cn(C3CC3)c12 (configuration not stated) [GATIFLOXACIN]
MIC (Streptococcus pneumoniae [1]): 4 µg/mL (≈ 10.7 µM) | MIC (Streptococcus pneumoniae [2]): 16 µg/mL (≈ 42.6 µM) | MIC (Streptococcus pneumoniae [3]): 8 µg/mL (≈ 21.3 µM) | MIC (Streptococcus pneumoniae [4]): 2 µg/mL (≈ 5.33 µM) | MIC (Streptococcus pneumoniae [5]): 1 µg/mL (≈ 2.66 µM) | MIC (Streptococcus pneumoniae [6]): 8 µg/mL (≈ 21.3 µM) | MIC (Streptococcus pneumoniae [7]): 0.25 µg/mL (≈ 0.666 µM) | MIC (Streptococcus pneumoniae [8]): 4 µg/mL (≈ 10.7 µM) | MIC (Streptococcus pneumoniae [9]): 16 µg/mL (≈ 42.6 µM) | MIC (Streptococcus pneumoniae [10]): 1 µg/mL (≈ 2.66 µM) | MIC (Streptococcus pneumoniae [11]): 4 µg/mL (≈ 10.7 µM) | MIC (Streptococcus pneumoniae [12]): 4 µg/mL (≈ 10.7 µM) | MIC (Streptococcus pneumoniae [13]): 8 µg/mL (≈ 21.3 µM) | MIC (Streptococcus pneumoniae [14]): 8 µg/mL (≈ 21.3 µM) | MIC (Streptococcus pneumoniae [15]): 4 µg/mL (≈ 10.7 µM) | MIC (Streptococcus pneumoniae [16]): 0.5 µg/mL (≈ 1.33 µM) | MIC (Streptococcus pneumoniae [17]): 8 µg/mL (≈ 21.3 µM) | MIC50 (Streptococcus pneumoniae [18]): 8 µg/mL (≈ 21.3 µM) | MIC90 (Streptococcus pneumoniae [18]): 8 µg/mL (≈ 21.3 µM) | MIC (Streptococcus pneumoniae [19]): 4 µg/mL (≈ 10.7 µM) | MIC (Streptococcus pneumoniae [20]): 16 µg/mL (≈ 42.6 µM) | MIC (Streptococcus pneumoniae [21]): 4 µg/mL (≈ 10.7 µM) | MIC (Streptococcus pneumoniae [22]): 4 µg/mL (≈ 10.7 µM) | MIC (Streptococcus pneumoniae [23]): 0.25 µg/mL (≈ 0.666 µM) | MIC (Streptococcus pneumoniae [24]): 4 µg/mL (≈ 10.7 µM) | MIC (Streptococcus pneumoniae [25]): 8 µg/mL (≈ 21.3 µM) | MIC (Streptococcus pneumoniae [26]): 8 µg/mL (≈ 21.3 µM) | MIC (Streptococcus pneumoniae [27]): 8 µg/mL (≈ 21.3 µM) | MIC (Streptococcus pneumoniae [28]): 2 µg/mL (≈ 5.33 µM) | MIC (Streptococcus pneumoniae [29]): 8 µg/mL (≈ 21.3 µM) | MIC50 (Streptococcus pneumoniae [30]): 0.5 µg/mL (≈ 1.33 µM) | MIC90 (Streptococcus pneumoniae [30]): 0.5 µg/mL (≈ 1.33 µM) | MIC (Streptococcus pneumoniae [31]): 8 µg/mL (≈ 21.3 µM)

COc1c(N2C[C@@H]3CCCN[C@@H]3C2)c(F)cc2c(=O)c(C(=O)O)cn(C3CC3)c12 [MOXIFLOXACIN]
MIC (Streptococcus pneumoniae [1]): 4 µg/mL (≈ 9.96 µM) | MIC (Streptococcus pneumoniae [2]): 4 µg/mL (≈ 9.96 µM) | MIC (Streptococcus pneumoniae [3]): 8 µg/mL (≈ 19.9 µM) | MIC (Streptococcus pneumoniae [4]): 0.5 µg/mL (≈ 1.25 µM) | MIC (Streptococcus pneumoniae [5]): 0.25 µg/mL (≈ 0.623 µM) | MIC (Streptococcus pneumoniae [6]): 4 µg/mL (≈ 9.96 µM) | MIC (Streptococcus pneumoniae [8]): 2 µg/mL (≈ 4.98 µM) | MIC (Streptococcus pneumoniae [9]): 4 µg/mL (≈ 9.96 µM) | MIC (Streptococcus pneumoniae [10]): 0.25 µg/mL (≈ 0.623 µM) | MIC (Streptococcus pneumoniae [11]): 4 µg/mL (≈ 9.96 µM) | MIC (Streptococcus pneumoniae [12]): 2 µg/mL (≈ 4.98 µM) | MIC (Streptococcus pneumoniae [13]): 4 µg/mL (≈ 9.96 µM) | MIC (Streptococcus pneumoniae [14]): 4 µg/mL (≈ 9.96 µM) | MIC (Streptococcus pneumoniae [15]): 2 µg/mL (≈ 4.98 µM) | MIC (Streptococcus pneumoniae [16]): 0.25 µg/mL (≈ 0.623 µM) | MIC (Streptococcus pneumoniae [17]): 4 µg/mL (≈ 9.96 µM) | MIC50 (Streptococcus pneumoniae [18]): 4 µg/mL (≈ 9.96 µM) | MIC90 (Streptococcus pneumoniae [18]): 4 µg/mL (≈ 9.96 µM) | MIC (Streptococcus pneumoniae [19]): 2 µg/mL (≈ 4.98 µM) | MIC (Streptococcus pneumoniae [20]): 2 µg/mL (≈ 4.98 µM) | MIC (Streptococcus pneumoniae [21]): 4 µg/mL (≈ 9.96 µM) | MIC (Streptococcus pneumoniae [22]): 2 µg/mL (≈ 4.98 µM) | MIC (Streptococcus pneumoniae [24]): 4 µg/mL (≈ 9.96 µM) | MIC (Streptococcus pneumoniae [25]): 4 µg/mL (≈ 9.96 µM) | MIC (Streptococcus pneumoniae [26]): 4 µg/mL (≈ 9.96 µM) | MIC (Streptococcus pneumoniae [27]): 4 µg/mL (≈ 9.96 µM) | MIC (Streptococcus pneumoniae [28]): 0.5 µg/mL (≈ 1.25 µM) | MIC (Streptococcus pneumoniae [29]): 4 µg/mL (≈ 9.96 µM) | MIC (Streptococcus pneumoniae [31]): 4 µg/mL (≈ 9.96 µM)
